The values below come from publication PMC3500524 (Cancer cell, 2012).

Data set [1] concerns the target T1, 6PGD (Homo sapiens, UniProt P52209).
T1 sequence (P52209 1-483): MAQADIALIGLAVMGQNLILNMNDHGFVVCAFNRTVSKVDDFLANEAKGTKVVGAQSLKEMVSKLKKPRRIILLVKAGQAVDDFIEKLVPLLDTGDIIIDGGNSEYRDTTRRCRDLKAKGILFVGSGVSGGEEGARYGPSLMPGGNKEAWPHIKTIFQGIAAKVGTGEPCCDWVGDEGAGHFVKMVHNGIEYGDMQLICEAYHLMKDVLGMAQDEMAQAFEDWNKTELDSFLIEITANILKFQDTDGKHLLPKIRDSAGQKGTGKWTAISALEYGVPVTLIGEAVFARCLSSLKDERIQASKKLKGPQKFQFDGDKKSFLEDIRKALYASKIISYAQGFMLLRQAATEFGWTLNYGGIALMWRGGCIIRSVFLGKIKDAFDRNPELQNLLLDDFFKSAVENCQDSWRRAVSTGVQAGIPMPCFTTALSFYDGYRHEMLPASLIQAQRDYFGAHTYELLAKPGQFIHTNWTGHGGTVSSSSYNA
Briefly: in vitro 6PGD enzyme activity assay. It counts as biochemical. Conditions: H1299 cell lysates or r6PGD.

In data set [2] the target is T2, PHGDH (Homo sapiens, UniProt O43175).
T2 sequence (O43175 1-533): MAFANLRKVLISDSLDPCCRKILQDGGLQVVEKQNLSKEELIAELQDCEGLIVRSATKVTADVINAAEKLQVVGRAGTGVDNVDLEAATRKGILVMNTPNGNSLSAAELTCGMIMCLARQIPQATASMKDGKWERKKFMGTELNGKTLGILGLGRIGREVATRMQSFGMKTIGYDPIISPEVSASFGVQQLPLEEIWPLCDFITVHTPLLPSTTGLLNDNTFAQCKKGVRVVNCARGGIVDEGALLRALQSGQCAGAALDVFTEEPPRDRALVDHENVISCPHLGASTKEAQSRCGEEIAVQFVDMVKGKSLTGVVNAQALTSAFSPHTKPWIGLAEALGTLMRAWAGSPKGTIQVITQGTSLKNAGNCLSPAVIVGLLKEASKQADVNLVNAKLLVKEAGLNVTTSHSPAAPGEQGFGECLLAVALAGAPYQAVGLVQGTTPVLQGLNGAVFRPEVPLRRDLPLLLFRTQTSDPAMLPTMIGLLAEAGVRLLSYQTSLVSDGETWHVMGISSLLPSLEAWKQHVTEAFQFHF
Put plainly: PHGDH enzyme activity assay. The data set is classed as biochemical.

Data set [3] addresses T1, 6PGD. Briefly: thermal melt shift assay of 6PGD with ligand. The data set is classed as binding. The settings on record: read-out: Kd for protein (6PGD)-ligand interaction.
The target of data set [4] is G6PD (Homo sapiens, UniProt P11413). Briefly: in vitro G6PD enzyme activity assay. The settings on record: increasing concentrations; H1299 cell lysates or rG6PD. It counts as biochemical.
Data set [5] deals with T1, 6PGD. Put plainly: 6PGD enzyme kinetics.
For data set [6], the target named is PGAM1 (Homo sapiens, UniProt P18669). The settings on record: intact cells, ref Evans et al., 2007, 2005; cited from earlier work.
Data set [7] deals with cancer cells. Conditions: ref Engel et al., 2004; Evans et al., 2005; cited from earlier work.
Data set [8] relates to H1299 cells. Briefly: metabolism of H1299 cells under inhibitor treatment. The data set is classed as cell-based, human.
Data set [9] has as its system H1299 cells. Briefly: cell proliferation of H1299 cells. It counts as cell-based, human.
Data set [10] relates to diverse human cancer and leukemia cells. Briefly: cell proliferation / viability by trypan blue exclusion. The data set is classed as cell-based.
For data set [11], the system named is human dermal fibroblasts (HDF), human foreskin fibroblasts (HFF), HaCaT keratinocyte cells, melanocyte PIG1 cells. Put plainly: cell proliferation / viability of normal proliferating human cells. The data set is classed as cell-based.
Data set [12] has as its system nude mice. Briefly: toxicity studies in nude mice. It counts as in vivo.
For data set [13], the system named is H1299 xenograft. Put plainly: H1299 xenograft in nude mice. It counts as in vivo, mouse.
The subject of data set [14] is primary leukemia cells from human patients. Put plainly: treatment of primary leukemia cells from human patients. It counts as cell-based.
In data set [15] the target is purified human PGAM1 proteins (Homo sapiens, UniProt P18669). Put plainly: PGAM1 enzyme assay. It counts as biochemical. Conditions: comparison among alizarin and derivatives.
Data set [16] has as its system human leukemia KG1a cells. Briefly: proliferation of KG1a cells. It counts as cell-based. Conditions: dose-dependent.
The mark [17] stands for this setting: primary leukemia cells, representative AML patient.
The mark [18] stands for this setting: samples from 7 (1 CML and 6 AML) out of 8 leukemia patients.

As a reminder, the Kd is a measure of binding affinity in units of concentration. One may read the Ki as the equilibrium dissociation constant of an inhibitor or competing ligand from its target.

The structures appear in SMILES notation.

Sequence of PGAM1 (P18669 whole entry): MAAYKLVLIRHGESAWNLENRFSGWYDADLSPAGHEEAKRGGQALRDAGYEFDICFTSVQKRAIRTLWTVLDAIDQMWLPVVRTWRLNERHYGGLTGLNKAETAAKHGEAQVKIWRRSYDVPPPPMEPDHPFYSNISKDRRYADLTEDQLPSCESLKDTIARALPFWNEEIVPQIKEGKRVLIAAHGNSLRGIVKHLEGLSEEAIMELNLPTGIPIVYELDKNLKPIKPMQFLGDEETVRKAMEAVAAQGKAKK
Sequence of purified human PGAM1 proteins (P18669 whole entry): as above
Sequence of G6PD (P11413 whole entry): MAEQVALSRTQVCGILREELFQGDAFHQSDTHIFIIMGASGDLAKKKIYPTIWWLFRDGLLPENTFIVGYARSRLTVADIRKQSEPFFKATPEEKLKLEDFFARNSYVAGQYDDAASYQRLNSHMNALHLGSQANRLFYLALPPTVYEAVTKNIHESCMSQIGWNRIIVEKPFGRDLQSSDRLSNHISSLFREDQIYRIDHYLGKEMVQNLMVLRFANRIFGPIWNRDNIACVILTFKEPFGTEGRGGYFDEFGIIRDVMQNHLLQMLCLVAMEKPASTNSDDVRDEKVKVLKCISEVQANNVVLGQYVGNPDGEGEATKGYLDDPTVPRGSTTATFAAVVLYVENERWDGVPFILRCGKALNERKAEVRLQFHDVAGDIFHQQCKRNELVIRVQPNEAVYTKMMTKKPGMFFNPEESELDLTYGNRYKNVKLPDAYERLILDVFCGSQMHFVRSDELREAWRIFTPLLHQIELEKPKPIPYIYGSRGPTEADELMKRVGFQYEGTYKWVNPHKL

As for `O=C(O)[C@@H](CO)OP(=O)(O)O` [2-PG, 2-phosphoglycerate], the 6PGD enzyme activity result in data set [1] (2-PG) was “did not affect 6PGD enzyme activity”. The PHGDH activity entry in [2] (2-PG ~15μM) was “did not significantly affect PHGDH activity”. Also, the PHGDH enzyme activity result in data set [2] (2-PG ~45μM or ~60μM, H1299 PGAM1 knockdown cell lysates) is reported as “higher PHGDH enzyme activity”. Moreover, in [2] (increasing concentrations of 2-PG), the “enzyme activity of recombinant PHGDH (rPHGDH)” value is listed as “increased enzyme activity of recombinant PHGDH”.
For `O=C(O)[C@H](O)COP(=O)(O)O` [3-PG, 3-phosphoglycerate], the Kd in data set [3] stood at 460 ± 40 µM. The 6PGD enzyme activity result in data set [1] (3-PG ~60μM) was “do not significantly affect 6PGD enzyme activity”; in data set [1] (3-PG ~250μM), “decreased enzyme activity of 6PGD”. Also, the G6PD activity entry in [4] is “did not significantly affect G6PD activity”. Moreover, the “mode of 6PGD inhibition” value in [5] (Lineweaver-Burk plot, 3-PG ~250μM, 6-PG ~35μM) is “competitive inhibitor of 6PGD”. Also, in [5] (read-out: inhibition constant (Ki) of 6PGD, Dixon plot), the Ki was 489 ± 13 µM.
Consider `C#CCCCC(=O)OC(C)(C)C1CCC2(CO2)C(OC(=O)NC(Cc2c[nH]c3ccccc23)C(=O)OCc2ccccc2)C1` (stereo not shown) [MJE3], for which, in data set [6], the PGAM1 activity result is listed as “specifically inhibits PGAM1 activity exclusively in intact cells”. For the same molecule, the cancer cell proliferation entry in [7] is reported as “attenuates cancer cell proliferation”.
Regarding `O=C1c2ccccc2C(=O)c2c1cc(S(=O)(=O)Nc1ccc(C(F)(F)F)cc1)c(O)c2O` [PGMI-004A], in data set [8], the 2-PG levels result is “decreased 2-PG”, the 3-PG levels result is given as “increased 3-PG levels”, the “biosynthesis of RNA” value was “reduced biosynthesis” and the biosynthesis of lipids entry is given as “reduced biosynthesis of lipids”. In data set [8], the “intracellular ATP levels” value was “no significant effect on intracellular ATP levels”, the lactate production entry was “significantly reduced lactate production” and the “oxidative PPP flux” value is “decreased oxidative PPP flux”. In data set [9], the cell proliferation result was “reduced”. Besides, in [10], the cell proliferation entry was “decreased cell proliferation”. Also, the “non-specific toxicity (cell proliferation) in normal cells” value in [11] is recorded as “minimal non-specific toxicity”. Further, in [12], the “histopathological analyses vs vehicle-treated group” value is given as “no notable differences”. Also, in [12] (100mg/kg/day intraperitoneally, 4 weeks), the “tolerability of chronic injection” value is recorded as “well-tolerated dose”. Moreover, the “body weight, complete blood counts (CBC), hematopoietic properties” value in data set [12] (100mg/kg/day, 7 days) was “did not result in significant alteration”. Besides, in [13] (100mg/kg/day), the “PGAM1 enzyme activity in resected tumors” value was “effectively inhibits PGAM1 enzyme activity in tumors”. In addition, the “tumor growth and tumor size” value in data set [13] (100mg/kg/day i.p., 21 days, vs vehicle) was “significantly decreased tumor growth and tumor size”. Also, in [14] (setting [17]), the 2-PG levels result is “decreased 2-PG levels” and the 3-PG levels result is given as “increased 3-PG”. Also, in data set [14] (setting [18]), the PGAM1 activity result is “reduced PGAM1 activity”, the cell viability entry was “decreased cell viability” and the lactate production entry is “reduced”.
`O=C1c2ccccc2C(=O)c2c1cc(S(=O)(=O)O)c(O)c2O` [alizarin Red S]: the “relative potency as PGAM1 inhibitor in vitro” value in [15] is “more potent PGAM1 inhibitor”.
Turning to `O=C1c2ccccc2C(=O)c2c1ccc(O)c2O` [alizarin, 1,2-dihydroxyanthraquinone], the cell proliferation entry in [16] is on record as “decreased proliferation”.
